Data: ChEMBL document CHEMBL1132067, “Cytotoxic effects of NSL-1406, a new thienopyrimidine derivative, on leukocytes and osteoclasts” (Bioorg Med Chem Lett, 1999)

Legend:
[1] = tested on: P388; experiment: Dose giving a 50% decrease in the living cell number (P388 cells); assay type: functional; settings: Mus musculus, read-out: LD50 (the source's name)
[2] = tested on: P388; experiment: Cytotoxicity against P388 cells is the dose giving 50% decrease in the formation of formazan dye; assay type: functional, cell-based; settings: Mus musculus
[3] = tested on: ECV-304; experiment: Cytotoxicity against ECV-304 cells is the dose giving 50% decrease in the formation of formazan dye; assay type: functional, cell-based; settings: Homo sapiens
[4] = tested on: J774; experiment: Dose giving a 50% decrease in the living cell number (J774 cells); assay type: functional; settings: Mus musculus, read-out: LD50 (the source's name)
[5] = tested on: A-431; experiment: Cytotoxicity against […] cells is the dose giving 50% decrease in the formation of formazan dye; assay type: functional, cell-based; settings: Homo sapiens
[6] = tested on: A-431; experiment: Dose giving a 50% decrease in the living cell number ([…] cells); assay type: functional; settings: Homo sapiens, read-out: LD50 (the source's name)
[7] = tested on: ECV-304; experiment: Dose giving a 50% decrease in the living cell number (ECV-304 cells); assay type: functional; settings: Homo sapiens, read-out: LD50 (the source's name)
[8] = tested on: J774; experiment: Cytotoxicity against J774 cells is the dose giving 50% decrease in the formation of formazan dye; assay type: functional, cell-based; settings: Mus musculus
[9] = tested on: HL-60; experiment: Dose giving a 50% decrease in the living cell number (HL-60 cells); assay type: functional; settings: Homo sapiens, read-out: LD50 (the source's name)
[10] = tested on: HL-60; experiment: Cytotoxicity against HL-60 cells is the dose giving 50% decrease in the formation of formazan dye; assay type: functional, cell-based; settings: Homo sapiens

| SMILES | CC50 [1] [µM] | IC50 [2] [µM] | also measured |
| --- | --- | --- | --- |
| Cc1csc2ncnc(NCCc3ccc(Br)cc3)c12 | 58 | 0.0011 |  |
| Cc1csc2ncnc(NCCc3ccccc3)c12 | 43 | 0.029 |  |
| Cc1csc2ncnc(NCCc3ccc(Cl)cc3)c12 | 35 | 0.0052 | IC50 [3]: 34 µM; CC50 [4]: 43 µM; IC50 [5]: 20 µM; CC50 [6]: 51 µM; CC50 [7]: 53 µM; IC50 [8]: 0.005 µM; CC50 [9]: 67 µM; IC50 [10]: 0.0085 µM |
| Clc1ccc(CCNc2ncnc3sccc23)cc1 | 73 | 0.035 |  |
| Cc1csc2ncnc(NCCc3ccc(O)cc3)c12 | 86 | 0.19 |  |
| CCCNc1ncnc2scc(C)c12 | 85 | 5.5 |  |
| Cc1csc2ncnc(NCCC(=O)O)c12 | 250 | 12 |  |
| Cc1csc2ncnc(NCCc3ccc(F)cc3)c12 | 68 | 0.029 |  |
| Cc1csc2ncnc(Cl)c12 | 490 | 33 |  |
| Clc1ccc(CCNc2[nH]cnc3ncnc2-3)cc1 | 96 | 7.3 |  |
| Cc1csc2ncnc(NCCCc3ccc(Cl)cc3)c12 | 98 | 1.3 |  |
| Cc1csc2ncnc(NCCc3ccc(N)cc3)c12 | 39 | 0.022 |  |
| COc1ccc(CCNc2ncnc3scc(C)c23)cc1 | 46 | 0.0074 |  |
| Cc1csc2ncnc(NCc3ccc(Cl)cc3)c12 | 74 | 0.17 |  |
| Clc1ccc(CCNc2ncnc3ccsc23)cc1 | 41 | 0.029 |  |
